In patent US20240158386A1, “BENZOXAZOLONE INHIBITORS OF INFLAMMASOMES” (ICAHN SCHOOL OF MEDICINE AT MOUNT SINAI, priority 2021, published 2024):

Experiments:
NLRP3 inflammasome = target: T1, NLRP3 inflammasome (Mus musculus, UniProt Q8R4B8); assay: NLRP3 inflammasome activation assay: IL-1β release by primary microglia after LPS and ATP; format: cell-based, murine; conditions: for inhibition of IL-1β release upon NLRP3 activation: 100 μM compound; for inhibition of IL-1β release upon NLRP3 activation / IC50: microglia, LPS and ATP; for IC50: IL-1β release, nonlinear fit of dose-response, read-out: IC50; for remaining activity at 100 µM: microglia cultures pretreated with 100 μM compound before NLRP3 activation with LPS and ATP, read-out: % Residual activity (percentage of IL-1β, referred to control)
T1 construct: endogenous in cells; host or cells: primary microglia from cortices of 2-3 day old WT mouse pups
T1 sequence (Q8R4B8 whole entry): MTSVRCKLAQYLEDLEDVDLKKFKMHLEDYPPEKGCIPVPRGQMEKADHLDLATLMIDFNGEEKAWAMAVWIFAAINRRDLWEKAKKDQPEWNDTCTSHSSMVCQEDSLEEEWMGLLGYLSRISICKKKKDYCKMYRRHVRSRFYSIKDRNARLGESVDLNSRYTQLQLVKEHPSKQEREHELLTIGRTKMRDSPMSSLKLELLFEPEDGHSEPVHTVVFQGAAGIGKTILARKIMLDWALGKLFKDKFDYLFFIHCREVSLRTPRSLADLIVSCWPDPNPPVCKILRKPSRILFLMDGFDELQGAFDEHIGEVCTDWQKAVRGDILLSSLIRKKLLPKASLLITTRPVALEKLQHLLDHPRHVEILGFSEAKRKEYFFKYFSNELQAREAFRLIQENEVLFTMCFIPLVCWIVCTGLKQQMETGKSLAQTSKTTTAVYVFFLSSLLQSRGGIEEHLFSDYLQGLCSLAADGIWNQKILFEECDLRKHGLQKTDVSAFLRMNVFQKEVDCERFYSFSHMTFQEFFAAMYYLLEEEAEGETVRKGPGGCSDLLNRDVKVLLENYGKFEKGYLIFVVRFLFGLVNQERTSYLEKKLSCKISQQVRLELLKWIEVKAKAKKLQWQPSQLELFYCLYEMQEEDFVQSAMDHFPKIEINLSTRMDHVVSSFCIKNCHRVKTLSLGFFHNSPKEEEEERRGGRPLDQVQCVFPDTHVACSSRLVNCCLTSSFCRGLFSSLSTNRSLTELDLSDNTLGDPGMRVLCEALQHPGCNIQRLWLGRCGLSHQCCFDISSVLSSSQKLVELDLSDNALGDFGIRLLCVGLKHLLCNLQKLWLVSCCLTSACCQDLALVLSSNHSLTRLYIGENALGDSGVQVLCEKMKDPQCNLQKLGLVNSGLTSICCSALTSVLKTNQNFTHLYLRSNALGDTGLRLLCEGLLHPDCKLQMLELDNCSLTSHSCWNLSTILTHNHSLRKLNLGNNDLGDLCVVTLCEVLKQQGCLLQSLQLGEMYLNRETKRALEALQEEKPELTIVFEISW
Protocol: Murine primary microglia. Mixed cortical cultures were prepared as previously described (Bronstein, R. et al. J. Vis. Exp. JoVE 50647 (2013) doi:10.3791/50647). Briefly, cortices from 2-3 days old, WT, or NLRP3 KO pups were isolated, digested, and seeded at a density of 8 cortices per 10 ml petri dish. Every three days, the medium was replaced by fresh culture medium (DMEM, 10% FBS, 1% penicillin-streptomycin). After three weeks, mixed glial cultures had reached confluence, and microglia cells were isolated by mild trypsinization as previously described (Saura, J. et al. Glia 44, 183-189 (2003)). In brief, cells were washed with culture medium without FBS and treated with a mixture of trypsin 0.25% (without EDTA) and DMEM-F12 medium in a 1:3 proportion. After an incubation period of approximately 40 min, an intact layer of mixed glial cells detached, leaving microglia attached firmly to the bottom of the Petri-dish. Pure microglia were then isolated by 15 min incubation with trypsin (0.05%)-EDTA at 37° C., followed by gentle shaking. Cells were counted and seeded at the desired density, typically 7.5·10^4 cells/well in 24 well-plates.
NLRP3 inflammasome activation assay. Primary microglia cultures were incubated with the compounds that inhibited IL-1β production in THP1 macrophages. Cells pretreated with 100 μM of the compounds—or with the same DMSO volume, in the case of control samples—were primed with 400 ng/ml LPS for 3 hours, and activated with 4.5 mM ATP for 45 minutes or […] nigericin for 1 hour. Dose-response curves were conducted by incubating microglia cultures with different concentrations of the selected compounds, ranging from 0.001 to 100 μM, 1 hour before NLRP3 activation with LPS and ATP. Supernatants were collected for IL-1β and toxicity assessments.
(§1) Cytokine quantification. IL-1β in cell supernatants and brain tissue samples—after the different treatment groups—was quantified using the Mouse IL-1 beta/IL-1F2 DuoSet ELISA kit (R&D systems), IL-6 in cell culture supernatant was measured through the Mouse IL-6 ELISA kit (ThermoFisher), TNF-α in cell culture supernatants was determined using the Mouse TNF-alpha DuoSet ELISA (R*D systems), and IL-18 in brain tissue was measured through the IL-18 Mouse ELISA Kit (Invitrogen) following the manufacturers' recommended protocol. IL-1β precursor and cleaved IL-1β in the FC of mice treated with vehicles, LPS, or C77-LPS was assessed by western blot. All samples were run in technical duplicates.

NLRC4 inflammasome = target: T2, NLRC4 inflammasome (Mus musculus, UniProt Q3UP24); assay: NLRC4 inflammasome activation assay: IL-1β release, microglia from NLRP3 KO mice, LPS and flagellin; format: cell-based; conditions: 10 μM; microglia from NLRP3 KO mice, LPS and flagellin
T2 construct: endogenous in cells; host or cells: primary microglia from NLRP3 KO mice
T2 sequence (Q3UP24 whole entry): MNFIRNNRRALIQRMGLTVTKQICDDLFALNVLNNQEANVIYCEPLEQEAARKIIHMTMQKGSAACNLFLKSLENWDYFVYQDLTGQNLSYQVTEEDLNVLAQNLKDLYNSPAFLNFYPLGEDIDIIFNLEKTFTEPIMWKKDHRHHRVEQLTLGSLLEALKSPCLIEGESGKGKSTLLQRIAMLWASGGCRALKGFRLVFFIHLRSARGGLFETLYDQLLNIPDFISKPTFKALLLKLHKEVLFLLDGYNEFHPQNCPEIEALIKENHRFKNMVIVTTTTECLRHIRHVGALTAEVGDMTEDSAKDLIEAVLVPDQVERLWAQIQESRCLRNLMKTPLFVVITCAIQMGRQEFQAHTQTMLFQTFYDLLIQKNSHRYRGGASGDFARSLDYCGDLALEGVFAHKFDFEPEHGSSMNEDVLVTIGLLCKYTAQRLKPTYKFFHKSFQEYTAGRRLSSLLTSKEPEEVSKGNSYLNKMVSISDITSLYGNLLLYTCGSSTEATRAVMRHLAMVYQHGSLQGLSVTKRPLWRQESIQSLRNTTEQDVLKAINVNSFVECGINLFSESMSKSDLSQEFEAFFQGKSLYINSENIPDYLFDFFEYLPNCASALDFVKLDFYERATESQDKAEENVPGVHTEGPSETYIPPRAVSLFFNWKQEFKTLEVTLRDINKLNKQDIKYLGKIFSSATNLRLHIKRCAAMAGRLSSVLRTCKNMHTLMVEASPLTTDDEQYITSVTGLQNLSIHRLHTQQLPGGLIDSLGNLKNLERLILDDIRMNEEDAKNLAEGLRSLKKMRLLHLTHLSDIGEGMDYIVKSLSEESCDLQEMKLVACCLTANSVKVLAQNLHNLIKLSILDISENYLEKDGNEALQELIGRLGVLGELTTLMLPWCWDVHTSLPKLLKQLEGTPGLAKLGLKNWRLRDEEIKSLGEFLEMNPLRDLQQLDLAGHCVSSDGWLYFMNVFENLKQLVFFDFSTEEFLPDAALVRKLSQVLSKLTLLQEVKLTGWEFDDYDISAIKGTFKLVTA
Protocol: AIM2, NLRP7, and NLRC4 inflammasomes activation assays. […] AIM2 inflammasome activation was induced through the addition of 100 ng/ml LPS for 2 hours, followed by transfection of 1 μg poly(dA:dT) using Lipofectamine 2000 during 2 hours, following the manufacturer recommendations. NLRC4 was activated by treatment with 150 ng/ml LPS for 2 hours, before transfection of 1 μg flagellin during 2 hours, using lipofectamine 2000 as transfection reagent. Negative and positive controls were pre-treated with the same DMSO percentage as cells treated with the inhibitors. Negative controls were kept untreated after DMSO addition, while LPS-poly(dA:dT) or LPS-flagellin was added to positive controls for AIM2, and NLRC4 activation, respectively. For activation of the NLRP7 inflammasome different conditions were assessed: treatment of WT microglia cultures with 400 ng/ml fibroblast-stimulating lipopeptide-1 (fsl-1) for 7 hours, priming with 150 ng/ml LPS for 1 hour and treatment with 400 ng/ml fsl-1 for 7 hours, and priming with 150 ng/ml LPS and transfection of 400 ng/ml fsl-1 with lipofectamine. MCC950 was used as a negative control for NLRC4 and AIM-2 inhibition. Cells were pretreated with 5 μM MCC950 before LPS addition, and 2 hours later the NLRC4 and AIM-2 activation was induced through addition of their specific activators. Cell supernatants were collected for IL-1β measurement.
as §1

[1] = tested on: ASC specks following NLRP3 activation; assay: ASC speck formation / ASC oligomerization in m-Cerulean ASC labeled macrophages; format: cell-based, murine; conditions: 10 μM pretreatment, LPS and ATP, compared with DMSO-treated cells
Protocol: m-Cerulean ASC labeled macrophages. NLRP3 Knock Out immortalized murine macrophages, stably expressing m-Cerulean-ASC, and NLRP3-Flag were a kind donation of Prof. Eicke Latz, (Institute of Innate Immunity, University of Bonn, Germany). Murine macrophages were maintained in high glucose DMEM medium supplemented with 10% FBS, 1% sodium pyruvate, and passaged every 2-3 days, before reaching confluence.
For ASC speck formation evaluation, murine macrophages were seeded in 96 well SCREENSTAR black microplates with clear base, 24 hours before stimulation. Then, cells were incubated for 1 hour with different concentrations of the inhibitors, or with the same DMSO volume for positive and negative controls for NLRP3 activation—DMSO-LPS-ATP or only DMSO, respectively. 0.5 μM MCC950 was used as a positive control for inhibition of NLRP3-mediated ASC oligomerization. NLRP3 activation was induced through treatment with 250 ng/ml LPS for 2.5 hours, followed by addition of 4.5 mM ATP for 45 min. Cells were then fixed and counterstained in a single step, as previously described (Stutz, A. et al. ASC Speck Formation as a Readout for Inflammasome Activation. in The Inflammasome (eds. De Nardo, C. M. & Latz, E.) vol. 1040 91-101 (Humana Press, 2013).). For that, a stock solution of DRAQS in formaldehyde was used, being the final concentrations 1% formaldehyde and 2.5 μM DRAQ5.
ASC oligomerization determination. […] ASC specks in cells pretreated with C75, C77, C78, and C97, before NLRP3 activation (as above indicated), were visualized with a widefield Leica DMi8 fluorescence microscope, using the 20× objective. […] For image analysis and speck quantification, ImageJ was used https://imagej.nih.gov/ij/index.html. Speck and nuclei quantification was performed as previously described in Stutz et al. When required (overlapping nuclei), the watershed separation algorithm was used to separate the particles. […] The rate of speck positive cells was calculated by normalizing the number of speck positive cells to the number of nuclei. […]

inhibition of IL-1β release upon NLRP3 activation (NLRP3 inflammasome) | IC50 (NLRP3 inflammasome) [µM] | remaining activity at 100 µM (NLRP3 inflammasome) [%] | Structure (SMILES) | inhibition of NLRC4-mediated IL-1β production (NLRC4 inflammasome) | rate of ASC speck positive cells [1]
completely prevented IL-1β secretion | 8.26 ± 1.16 | 0 | O=C(Cn1c(=O)oc2ccccc21)NCCn1cc(-c2ccoc2)cn1 [Compound C78, N-(2-(4-(furan-3-yl)-1H-pyrazol-1-yl)ethyl)-2-(2-oxobenzoidloxazol-3(2H)-yl)acetamide] | presented inhibitory power against the NLRC4 inflammasome | significantly reduced
completely prevented IL-1β secretion | 9.24 ± 1.06 | 0 | O=C(Cn1c(=O)oc2ccccc21)NCC(O)(c1ccoc1)c1ccco1 (stereo not shown) [Compound C75] | presented inhibitory power against the NLRC4 inflammasome | significantly reduced
